# Patent US7094801B2, “Chalcone derivatives and their use to treat diseases” (Atherogenics, Inc., priority 2001, dated 2006)
# Experiments:
# [1] = tested on: VCAM-1; assay: In Vitro VCAM-1 Assay (TNF-α stimulated HAEC or HPAEC, cell ELISA); assay type: cell-based, human; conditions: TNF-α (1 ng/ml) stimulated HAEC or HPAEC, approximately 16 hours
# Procedure: Cell Culture and compound dosing: Cultured primary human aortic (HAEC) or pulmonary (HPAEC) endothelial cells were obtained from Clonetics, Inc., and were used below passage 9. Cells were seeded in 96 well plates such that they would reach 90–95% confluency by the following day. On the following day the cells were stimulated with TNF-α (1 ng/ml) in the presence or absence of compounds dissolved in DMSO such that the final concentration of DMSO is 0.25% or less. To establish a dose curve for each compound, four concentrations in 2- to 5-fold increments were used. Cells were exposed to TNF-α and compounds for approximately 16 hours. The next day the cells were examined under microscope to score for visual signs of toxicity or cell stress.
# Following 16 hr exposure to TNF-α and compound the media was discarded and the cells were washed once with Hanks Balanced Salt Solution (HBSS)/Phosphate buffered saline (PBS) (1:1). Primary antibodies against VCAM-1 (0.25 μg/ml in HBSS/PBS+5% FBS) were added and incubated for 30–60 minutes at 37° C. Cells were washed with HBSS/PBS three times, and secondary antibody Horse Radish Peroxidase (HRP)-conjugated goat anti-mouse IgG (1:500 in HBSS/PBS+5% FBS) were added and incubated for 30 minutes at 37° C. Cells were washed with HBSS/PBS four time and TMB substrate were added and incubated at room temperature in the dark until there was adequate development of blue color. The length of time of incubation was typically 5–15 minutes. 2N sulfuric acid was added to stop the color development and the data was collected by reading the absorbance on a BioRad ELISA plate reader at OD 450 nm. The results are expressed as IC50 values (the concentration (micromolar) of compound required to inhibit 50% of the maximal response of the control sample stimulated by TNF-α only).
melting point,"IC50 ([1]; Homo sapiens, 16 h) [µM]",IC50 ([1]; sodium salt) [µM],SMILES
188 to 191 °C (dec.),< 1,–,"COc1cc(OCCCN2CCOCC2)c(/C=C/C(=O)c2ccc(C(=O)O)cc2)cc1-c1cccs1.Cl [Example 66, 4-{3E-[4-Methoxy-2-(3-morpholin-4-yl-propoxy)-5-thiophen-2-yl-phenyl]-acryloyl}-benzoic acid, hydrochloride]"
256 to 258 °C,> 10,–,"COc1cc(-c2cccs2)cc(OC)c1/C=C/C(=O)c1ccc(C(=O)O)cc1 [Example 37, 4-[3E-(2,6-Dimethoxy-4-thiophen-2-yl-phenyl)-acryloyl]-benzoic acid]"
149 to 151 °C,< 10,–,"COC(=O)c1ccc(C(=O)/C=C/c2cc(-c3cc4ccccc4s3)c(OC)cc2OC)cc1 [Example 118, 4-[3E-(5-Benzo[b]thiophen-2-yl-2,4-dimethoxy-phenyl)-acryloyl]-benzoic acid methyl ester]"
> 260 °C,> 10,–,"COc1cc(OC)c(-c2cc3ccccc3s2)cc1/C=C/C(=O)c1ccc(Nc2c(N)c(=O)c2=O)cc1 [Example 102, 3-Amino-4-{4-[3E-(5-benzo[b]thiophen-2-yl-2,4-dimethoxy-phenyl)-acryloyl]-phenylamino}-cyclobut-3-ene-1,2-dione]"
174 to 175 °C,< 10,–,"COCCOCCOc1cc(OC)c(/C=C/C(=O)c2ccc(C(=O)O)cc2)cc1-c1cccs1 [Example 49, 4-(3E-{2-Methoxy-4-[2-(2-methoxy-ethoxy)-ethoxy]-5-thiophen-2-yl-phenyl}-acryloyl)-benzoic acid]"
187 to 191 °C,< 5,–,"COc1cc(OCC2CC2)c(/C=C/C(=O)c2ccc(C(=O)O)cc2)cc1-c1cccs1 [Example 32, 4-[3E-(2-Cyclopropylmethoxy-4-methoxy-5-thiophen-2-yl-phenyl)-acryloyl]-benzoic acid]"
237 °C (dec.),< 1,–,"COc1ccc(/C=C/C(=O)c2ccc(C(=O)O)cc2)c(OC)c1-c1cc2ccccc2s1 [Example 44, 4-[3E-(3-Benzo[b]thiophen-2-yl-2,4-dimethoxy-phenyl)-acryloyl]-benzoic acid]"
193 to 195 °C,< 1,–,"COc1cc(-c2cccs2)ccc1C(=O)/C=C/c1ccc(C(=O)O)cc1 [Example 19, 4-[3-(2-Methoxy-4-thiophen-2-yl-phenyl)-3-oxo-E-propenyl]-benzoic acid]"
240 to 241 °C,< 1,–,"COc1cc(OC)c(-c2cc3ccccc3s2)cc1/C=C/C(=O)c1ccc(C(N)=O)cc1 [Example 93, 4-[3E-(5-Benzo[b]thiophen-2-yl-2,4-dimethoxy-phenyl)-acryloyl]-benzamide]"
> 260 °C,< 10,–,"O=C(O)c1ccc(C(=O)/C=C/c2ccc(-c3cncnc3)cc2)cc1 [Example 4, 4-[3E-(4-Pyrimidin-5-yl-phenyl)-acryloyl]-benzoic acid]"
138 to 140 °C,> 10,–,"CSc1ccc(C(=O)/C=C/c2ccc(-c3cccs3)cc2)cc1 [Example 24, 1-(4-Methylthiophenyl)-3E-(4-thiophen-2-yl-phenyl)-propenone]"
> 260 °C,< 5,–,"COc1cc(OC)c(-c2nccs2)cc1/C=C/C(=O)c1ccc(C(=O)O)cc1 [Example 55, 4-[3E-(2,4-Dimethoxy-5-thiazol-2-yl-phenyl)-acryloyl]-benzoic acid]"
243 °C (dec.),< 10,–,"COc1cc(O)c(-c2cccs2)cc1/C=C/C(=O)c1ccc(C(=O)O)cc1 [Example 54, 4-[3E-(4-Hydroxy-2-methoxy-5-thiophen-2-yl-phenyl)-acryloyl]-benzoic acid]"
213 to 215 °C,< 1,–,"COc1cc(OC)c(-c2ccc(C)s2)cc1/C=C/C(=O)c1ccc(C(=O)O)cc1 [Example 40, 4-{3E-[2,4-Dimethoxy-5-(5-methyl-thiophen-2-yl)-phenyl]-acryloyl}-benzoic acid]"
219 to 220 °C,< 5,–,"COc1ccc(/C=C/C(=O)c2ccc(C(=O)O)cc2)cc1-c1cccs1 [Example 41, 4-[3E-(4-Methoxy-3-thiophen-2-yl-phenyl)-acryloyl]-benzoic acid]"
228 to 229 °C,< 1,–,"COc1cc(OC)c(-c2cc3ccccc3s2)cc1/C=C/C(=O)c1ccc(C(=O)NC(C)=O)cc1 [Example 95, N-Acetyl-4-[3E-(5-benzo[b]thiophen-2-yl-2,4-dimethoxy-phenyl)-acryloyl]-benzamide]"
156 to 160 °C,> 10,–,"COc1cc(OC)c(-c2c[nH]c(C3CC3)n2)cc1/C=C/C(=O)c1ccc(S(N)(=O)=O)cc1 [Example 111, 4-{3E-[5-(2-Cyclopropyl-1H-imidazol-4-yl)-2,4-dimethoxy-phenyl]-acryloyl}-benzenesulfonamide]"
222 to 224 °C,> 10,–,"COc1cc(OC)c(-c2nc3cccnc3[nH]2)cc1/C=C/C(=O)c1ccc(C(=O)O)cc1 [Example 76, 4-{3E-[5-(3H-Imidazo[4,5-b]pyridin-2-yl)-2,4-dimethoxy-phenyl]-acryloyl}-benzoic acid]"
235 °C (dec.),< 10,–,"COc1cc(OC)c(-c2cccs2)cc1/C=C/C(=O)c1ccc(-c2nn[nH]n2)cc1 [Example 78, 3E-(2,4-Dimethoxy-5-thiophen-2-yl-phenyl)-1-[4-(2H-tetrazol-5-yl)-phenyl]-propenone]"
137 to 138 °C,< 5,–,"COCCOCCOCCOc1cc(OC)c(-c2cccs2)cc1/C=C/C(=O)c1ccc(C(=O)O)cc1 [Example 68, 4-[3E-(4-Methoxy-2-{2-[2-(2-methoxy-ethoxy)-ethoxy]-ethoxy}-5-thiophen-2-yl-phenyl)-acryloyl]-benzoic acid]"
> 240 °C (dec.),< 5,–,"COc1cc(OC)c(-c2nc3ccccc3[nH]2)cc1/C=C/C(=O)c1ccc(C(=O)O)cc1.Cl [Example 70, 4-{3E-[5-(1H-Benzoimidazol-2-yl)-2,4-dimethoxy-phenyl]-acryloyl}-benzoic acid]"
231 °C,< 1,–,"COc1cc(/C=C/C(=O)c2ccc(C(=O)O)cc2)cc(-c2cccs2)c1OC [Example 8, 4-[3E-(3,4-Dimethoxy-5-thiophen-2-yl-phenyl)-acryloyl]-benzoic acid]"
67 to 71 °C,< 5,–,"COc1cc(/C=C/C(=O)c2ccc(N)cc2)cc(-c2cccs2)c1OC [Example 11, 1-(4-Amino-phenyl)-3E-(3,4-dimethoxy-5-thiophen-2-yl-phenyl)-propenone]"
214 to 217 °C (dec.),–,< 5,"COc1cc(OC)c(-c2cc3ccccc3s2)cc1/C=C/C(=O)c1ccccc1C(=O)[O-].[Na+] [Example 9, 2-[3E-(5-Benzo[b]thiophen-2-yl-2,4-dimethoxy-phenyl)-acryloyl]-benzoic acid, sodium salt]"
185 to 187 °C,< 5,–,"Nc1ccc(C(=O)/C=C/c2ccc(-c3cccs3)cc2)cc1 [Example 12, 1-(4-Amino-phenyl)-3E-(4-thiophen-2-yl-phenyl)-propenone]"
